For one test, the target named is T1, MAPK14/p38α kinase (Homo sapiens, UniProt Q16539).
T1 construct: purchased ThermoFisher PV3304
The test can be described thus: MAPK14/p38α kinase assay (LanthaScreen TR-FRET). The class given is biochemical. The note with it: for IC50: Table 3, read-out: IC50 (P38 alpha); for inhibition at 0.1 µM: 100 nM concentration of compound, Table 4, read-out: Enzyme Activity MAPK14 (p38alpha) % Inh at 100 nM. The method, then:
MAPK14/p38α Kinase Assay for IC50 Determination:
IC50 values of compounds against MAPK14/P38α kinase were determined by Lanthascreen based TR-FRET assay. Kinase reactions were performed in a 10 μL volume in low-volume 384-well plates. The concentration of substrate was maintained at 400 nM in the assay, and the kinase reaction buffer (1×; Cat # PV3189, ThermoFisher) consisted of 50 mM HEPES pH 7.5, 0.01% BRIJ-35, 10 mM MgCl2, and 1 mM EGTA. Serially diluted compounds (3-fold) in DMSO (0.5% in final reaction) were incubated with cocktail of MAPK14/p38α kinase (20 ng/ml; Cat # PV3304, ThermoFisher), Substrate GFP-ATF2 (19-96), (0.4 μM; Cat # PV4445, ThermoFisher), ATP (90 μM; Cat # PV3227, ThermoFisher) and buffer. Kinase reactions were allowed to proceed for 1 hour at room temperature before EDTA (10 mM; Cat # P2825, ThermoFisher) and LanthaScreen™ Tb-antipATF2 (pThr71) Antibody (2 nM; Cat # PV4451, ThermoFisher) in TR-FRET dilution buffer (IX; Cat # PV3574, ThermoFisher) were added. The plate was allowed to incubate at room temperature for 30 minutes before being read on a BMG Pherastar plate reader using the LanthaScreen™ filter block for LanthaScreen™ TR-FRET.
The resulting TR-FRET emission ratio was plotted against the concentration of inhibitor, and the data was fit to a sigmoidal dose-response curve with a variable slope. The IC50 for the inhibitor was calculated from the curve.
(In general: Time-resolved FRET reads energy transfer from a long-lived donor to a nearby acceptor.)

A further test concerns the target T2, TGFBR1 (ALK5) (Homo sapiens, UniProt P36897).
T2 sequence (P36897 34-503): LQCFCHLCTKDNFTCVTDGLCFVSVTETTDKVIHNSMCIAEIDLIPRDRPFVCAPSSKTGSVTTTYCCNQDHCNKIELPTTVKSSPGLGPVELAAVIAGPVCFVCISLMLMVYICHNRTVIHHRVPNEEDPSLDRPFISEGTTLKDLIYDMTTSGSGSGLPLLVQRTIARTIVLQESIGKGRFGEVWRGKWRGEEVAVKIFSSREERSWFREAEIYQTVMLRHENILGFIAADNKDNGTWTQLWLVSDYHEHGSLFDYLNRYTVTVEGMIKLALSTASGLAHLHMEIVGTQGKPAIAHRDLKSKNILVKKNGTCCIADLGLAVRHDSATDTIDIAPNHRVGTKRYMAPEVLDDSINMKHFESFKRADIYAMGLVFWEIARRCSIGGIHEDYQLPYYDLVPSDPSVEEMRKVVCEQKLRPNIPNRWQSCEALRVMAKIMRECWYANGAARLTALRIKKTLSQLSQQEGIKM
Briefly: ALK5 kinase assay (LanthaScreen Terbium labeled TR-FRET). The test is classed as biochemical. The method, then: ALK5 Kinase Assay for IC50 Determination:
IC50 values of compounds against TGFβ kinase was determined by LanthaScreen™ Terbium Labeled TR-FRET assay. Kinase assays were performed in IX kinase buffer (# PV6135, Invitrogen, Life Technologies Grand Island, N.Y.) where total reaction volume was 10 μL in low-volume 384-well plates (#4511,Corning). Serially diluted compounds (3-fold) were incubated with TGFβ kinase (6 nM) for 10 min, following which a mixture of ATP (10 μM) (# A1852, Sigma, St-Louis, Mo.) and fluorescent-PolyGT substrate (200 nM) (# PV3610, Invitrogen, Life Technologies Grand Island, N.Y.) was added and incubated in dark at room temperature for 1 h. After 1 h, 10 μL stop solution containing Terbium labeled antibody (4 nM) (# PV3529, Invitrogen, Life Technologies Grand Island, N.Y.) and EDTA (# E5134, Sigma, St-Louis, Mo.) (20 mM) in TR-FRET dilution buffer (# PV3574, Invitrogen, Life Technologies Grand Island, N.Y.) was added. Readings were taken in a Synergy Neo Plate reader (BioTek, Winooski) at single excitation of 340 nm and Dual emission at 495 nm and 520 nm respectively.
The % activity of test samples was calculated as (Sample−Min)×100/(Max−Min). [Max: DMSO control, complete reaction with enzyme with DMSO and Min: No enzyme with DMSO]. Percent inhibition (100-% activity) was fitted to the “four-parameter logistic model” in XLfit for determination of IC50 values.

Another test concerns Panc-1. Briefly: Cell viability assay (resazurin, 96 hr) in Panc-1. The class given is cell-based. The conditions noted are these: Homo sapiens; Panc-1 pancreatic cell line, 96 hr exposure; read-out: Panc-1_Cell Viability_IC50. The method, then: (§1) Cell Viability Assay in MIA PaCa-2 and Panc-1
(§2) MIA PaCa-2 (ATCC® CRL-1420™) and Panc-1 (CRL-1469™), both pancreatic cell lines were seeded in their respective medium (DMEM, Cat #10569044 with 10% FBS, Cat #16000044; Gibco for Panc-1 and an additional 2.5% Horse Serum, Cat #16050122; Gibco for MIA PaCa-2) at a cell count of 3000 cells per 100 μl per well in a 96 well edge plate (167425; ThermoFisher). Cells were allowed to grow at 37° C. for 24 hr in 5% CO2 (culture conditions) in a Nuaire incubator (humidified). Serially diluted compounds (100 μl) were added to the culture plate 24 hr later and the cultures (MIA PaCa-2 and Panc-1) were further incubated in culture conditions for 96 hr. Experiment was terminated at the completion of 96 hr exposure to the drug by replacing the medium with 100 μl of 1 mM of resazurin (R7017; Sigma) prepared in culture medium and the plates were further incubated in culture conditions for 4 hr. Fluorescence was then measured using a multimodal plate reader (Biotek Synergy Neo) at an excitation wavelength of 535 nm and emission wavelength of 590 nm to obtain relative fluorescence units. Data analysis was done by subtracting the background fluorescence (only medium blank) value from each reading and then normalizing with the vehicle control (DMSO treated cells) to obtain percent survival/proliferation. Percent survival at different doses was used to calculate IC50 by fitting the curve to the “four-parameter variable slope logistic model” using Prism Graph Pad.
On the technique in general: Alamar Blue is a resazurin reagent that responds to reducing activity.

A further test has as its system MIA PaCa-2. Briefly: Cell viability assay (resazurin, 96 hr) in MIA PaCa-2. The class given is cell-based. The note with it: Homo sapiens; MIA PaCa-2 pancreatic cell line, 96 hr exposure; read-out: MiaPaCa-2_Cell Viability_IC50. As to the method:
as §1, §2

SMILES strings stand for the structures. Structures can show the parent of a compound that is named as a salt. Where two headings read alike, the source gives them in different places. Bounds are passed on as bounds.

T1 sequence (Q16539 whole entry): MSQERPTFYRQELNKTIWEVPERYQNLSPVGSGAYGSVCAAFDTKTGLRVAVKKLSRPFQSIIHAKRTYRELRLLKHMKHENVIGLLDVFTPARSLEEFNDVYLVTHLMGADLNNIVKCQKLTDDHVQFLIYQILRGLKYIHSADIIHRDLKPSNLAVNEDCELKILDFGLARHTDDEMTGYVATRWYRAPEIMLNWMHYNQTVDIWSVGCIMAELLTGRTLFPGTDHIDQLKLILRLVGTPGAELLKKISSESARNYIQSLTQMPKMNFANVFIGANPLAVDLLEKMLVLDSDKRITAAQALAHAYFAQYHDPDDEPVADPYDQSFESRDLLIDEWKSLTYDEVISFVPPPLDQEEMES

Regarding `CC(C)c1cnc(-c2ccc(F)cc2)nc1Nc1ccnc2[nH]cc(C(=O)C(=O)N3CCNCC3)c12` [Compound No. 23, 1-(4-(2-(4-fluorophenyl)-5-isopropylpyrimidin-4-ylamino)-1H-pyrrolo [2,3-b]pyridin-3-yl)-2-(piperazin-1-yl) ethane-1,2-dione hydrochloride], the IC50 on MAPK14/p38α kinase is 1.3 µM; at TGFBR1 (ALK5) (Table 3, read-out: IC50 (ALK5)), 0.671 µM; with Panc-1 it was 5.85 µM; in the test with MIA PaCa-2 it was 1.14 µM.
Taken in the same sequence, the figures for `CC(C)c1cnc(-c2ccccc2)nc1Nc1ccnc2[nH]cc(C(=O)C(N)=O)c12` [Compound No. 26, 2-(4-((5-isopropyl-2-phenylpyrimidin-4-yl)amino)-1H-pyrrolo[2,3-b]pyridin-3-yl)-2-oxoacetamide hydrochloride] were 0.244 µM, 0.602 µM, more than 30 µM and 2.19 µM.
Turning to `CC(C)c1ccc(-c2ccc(F)cc2)nc1Nc1ccnc2[nH]cc(C(=O)C(N)=O)c12` [Compound No. 27, 2-(4-(6-(4-fluorophenyl)-3-isopropylpyridin-2-ylamino)-1H-pyrrolo [2,3-b]pyridin-3-yl)-2-oxoacetamide hydrochloride], on MAPK14/p38α kinase, the inhibition at 0.1 µM was found to be 0%. Also, the IC50 on TGFBR1 (ALK5) (Table 4, read-out: ALK5 IC50) was more than 5 µM; in the test on Panc-1, more than 30 µM; with MIA PaCa-2, more than 30 µM.
In the case of `CC(C)c1cnc(-c2ccc(F)cc2)nc1Nc1cccc2[nH]cc(C(=O)C(N)=O)c12` [Compound No. 28, 2-(4-(2-(4-fluorophenyl)-5-isopropylpyrimidin-4-ylamino)-1H-indol-3-yl)-2-oxoacetamide hydrochloride], the inhibition at 0.1 µM on MAPK14/p38α kinase was 21%. In addition, the IC50 at TGFBR1 (ALK5) (Table 4, read-out: ALK5 IC50) was more than 5 µM; with Panc-1, more than 30 µM; in the test with MIA PaCa-2, more than 30 µM.

Source of the values: US20200171030A1, “DUAL INHIBITORS OF ALK5 AND P38A MAP KINASE” (INTEGRAL BIOSCIENCES PRIVATE LIMITED, priority 2018, published 2020).
